Results reported in patent publication US12233161B1, “Lipids and lipid nanoparticle formulations” (LONGUIDE BIOPHARMA CORPORATION, priority 2024, dated 2025).

Legend:
mice = assay: In vivo delivery of FLuc-mRNA lipid nanoparticles in mice, in vivo imaging (IVIS)
Procedure, shortened: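 Mice (n=3) received about 75 μL FLuc-mRNA LNP per mouse intramuscularly (rectus femoris), intravenously (tail vein), intraperitoneally or subcutaneously (back). After injection, D-luciferin (200 μL, 15 mg/mL) was given i.p. 10-15 min before IVIS imaging.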

[1] = Particle size and PDI of nucleic acid lipid nanoparticle preparations by dynamic light scattering; format: physicochemical
Protocol: The 7.5 μL nucleic acid lipid nanoparticle solution (containing approximately 0.04 mg/mL mRNA) was taken and added with 200 μL ultrapure water, mixed by gentle blowing using a pipette tip, and the particle size of the nanopreparation was detected by dynamic lightscattering (DLS) using a Malvern Dynamic Light Scattering Instrument (Malvern Instruments Ltd., ZEN3700, UK).
27.5 μL nucleic acid lipid nanoparticle solution (containing about 0.04 mg/mL mRNA) was taken and added with 200 μL ultrapure water. A pipette tip was used to gently blow the sample and mix well. The particle size of the nanopreparation was detected by Malvern Dynamic Light Scattering Instrument (Malvern Instruments Ltd., ZEN3700, UK). After the detection, the sample was recovered to an EP tube, and 600 μL of ultrapure water was added, gently blown with a pipette tip, and the potential of the nanopreparation was measured by a Malvern particle size meter.

[2] = DMG-PEG2000:DSPC:Chol:Lipid 1.00:11.50:22.50:65.00, N/P 65, IV, liver
[3] = DMG-PEG2000:DSPC:Chol:Lipid 1.00:11.50:22.50:65.00, N/P 65, IV, lung
[4] = DMG-PEG2000:DSPC:Chol:Lipid 1.00:11.50:22.50:65.00, N/P 65, IV, spleen
[5] = DMG-PEG2000:DSPC:Chol:Lipid 2.50:11.50:51.00:35.00, N/P 50, IV, liver
[6] = DMG-PEG2000:DSPC:Chol:Lipid 2.50:11.50:51.00:35.00, N/P 50, IV, lung
[7] = DMG-PEG2000:DSPC:Chol:Lipid 2.50:11.50:51.00:35.00, N/P 50, IV, spleen
[8] = DMG-PEG2000:DSPC:Chol:Lipid 1.00:11.50:22.50:65.00, N/P 65, mRNA LNP
[9] = DMG-PEG2000:DSPC:Chol:Lipid 1.00:16.00:48.00:35.00, N/P 35, mRNA LNP
[10] = DMG-PEG2000:DSPC:Chol:Lipid 1.00:16.00:63.00:20.00, N/P 35, mRNA LNP
[11] = DMG-PEG2000:DSPC:Chol:Lipid 2.50:11.50:51.00:35.00, N/P 50, mRNA LNP
[12] = DMG-PEG2000:DSPC:Chol:compound 1.00:10.00:33.00:56.00, N/P 42
[13] = DMG-PEG2000:DSPC:Chol:Lipid 1.00:8.00:51.00:40.00, N/P 6.7, IV, liver
[14] = DMG-PEG2000:DSPC:Chol:Lipid 1.00:8.00:51.00:40.00, N/P 6.7, IV, lung
[15] = DMG-PEG2000:DSPC:Chol:Lipid 1.00:8.00:51.00:40.00, N/P 6.7, IV, spleen
[16] = DMG-PEG2000:DSPC:Chol:Lipid 1.50:8.00:30.50:60.00, N/P 8.3, IV, liver
[17] = DMG-PEG2000:DSPC:Chol:Lipid 1.50:8.00:30.50:60.00, N/P 8.3, IV, lung
[18] = DMG-PEG2000:DSPC:Chol:Lipid 1.50:8.00:30.50:60.00, N/P 8.3, IV, spleen
[19] = DMG-PEG2000:DSPC:Chol:Lipid 1.00:8.00:51.00:40.00, N/P 6.7, mRNA LNP
[20] = DMG-PEG2000:DSPC:Chol:Lipid 1.50:8.00:30.50:60.00, N/P 8.3, mRNA LNP
[21] = DMG-PEG2000:DSPC:Chol:Lipid 1.63:12.99:45.38:40.00, N/P 25, mRNA LNP
[22] = DMG-PEG2000:DSPC:Chol:Lipid 1.40:11.15:38.95:48.50, N/P 45, mRNA LNP
[23] = DMG-PEG2000:DSPC:Chol:Lipid 1.77:14.07:49.16:35.00, N/P 45, mRNA LNP
[24] = DMG-PEG2000:DSPC:Chol:Lipid 1.40:11.15:38.95:48.50, N/P 60, mRNA LNP
[25] = DMG-PEG2000:DSPC:Chol:Lipid 1.77:14.07:49.16:35.00, N/P 60, mRNA LNP

Compound: CCCCCCCCCCNC(=O)C(O)CN(CCCN(C)CCCN(CC(O)C(=O)NCCCCCCCCCC)CC(O)C(=O)NCCCCCCCCCC)CC(O)C(=O)NCCCCCCCCCC (stereo not drawn) [Compound L0265]
- IVIS (mice; DMG-PEG2000:DSPC:Chol:Lipid 1.00:11.50:22.50:65.00, N/P 65, IV, body): 1.59 × 10^8
- % of organ targeting (mice; [2]): 0.76%
- IVIS (mice; [2]): 7.76 × 10^6
- % of organ targeting (mice; [3]): 97.75%
- IVIS (mice; [3]): 1.00 × 10^9
- % of organ targeting (mice; [4]): 1.50%
- IVIS (mice; [4]): 1.53 × 10^7
- IVIS (mice; DMG-PEG2000:DSPC:Chol:Lipid 1.00:16.00:48.00:35.00, N/P 35, IM, whole body scan): 6.15 × 10^7
- IVIS (mice; DMG-PEG2000:DSPC:Chol:Lipid 1.00:16.00:63.00:20.00, N/P 35, IM, whole body scan): 6.47 × 10^6
- IVIS (mice; DMG-PEG2000:DSPC:Chol:Lipid 2.50:11.50:51.00:35.00, N/P 50, IV, body): 4.45 × 10^7
- % of organ targeting (mice; [5]): 21.35%
- IVIS (mice; [5]): 6.87 × 10^6
- % of organ targeting (mice; [6]): 20.23%
- IVIS (mice; [6]): 6.51 × 10^6
- % of organ targeting (mice; [7]): 58.42%
- IVIS (mice; [7]): 1.88 × 10^7
- IVIS (mice; IV, body, DMG-PEG2000:DSPC:Chol:compound 1.00:10.00:33.00:56.00, N/P 42, Fluc-mRNA): 2.04E+08
- % of organ targeting (mice; IV, liver, DMG-PEG2000:DSPC:Chol:compound 1.00:10.00:33.00:56.00, N/P 42): 0.55%
- IVIS (mice; IV, liver, DMG-PEG2000:DSPC:Chol:compound 1.00:10.00:33.00:56.00, N/P 42, Fluc-mRNA): 2.18E+06
- % of organ targeting (mice; IV, lung, DMG-PEG2000:DSPC:Chol:compound 1.00:10.00:33.00:56.00, N/P 42): 98.43%
- IVIS (mice; IV, lung, DMG-PEG2000:DSPC:Chol:compound 1.00:10.00:33.00:56.00, N/P 42, Fluc-mRNA): 3.94E+08
- % of organ targeting (mice; IV, spleen, DMG-PEG2000:DSPC:Chol:compound 1.00:10.00:33.00:56.00, N/P 42): 1.03%
- IVIS (mice; IV, spleen, DMG-PEG2000:DSPC:Chol:compound 1.00:10.00:33.00:56.00, N/P 42, Fluc-mRNA): 4.11E+06
- in vivo delivery efficiency as compared to the benchmark compound SM102 (mice; certain formulations, Table 2): superior in vivo delivery efficiency
- tissue-targeting specificity (lung vs spleen depending on molar percentage of compound) (mice; certain formulations, Table 2): strong tissue-targeting specificity
- PDI [1, 8]: 0.10 ± 0.02
- Particle size [1, 8]: 87.42 ± 0.32 nm
- PDI [1, 9]: 0.11 ± 0.02
- Particle size [1, 9]: 115.10 ± 0.87 nm
- PDI [1, 10]: 0.11 ± 0.02
- Particle size [1, 10]: 135.03 ± 0.67 nm
- PDI [1, 11]: 0.12 ± 0.01
- Particle size [1, 11]: 122.50 ± 1.15 nm
- PDI [1, 12]: 0.08
- Particle size (nm) [1, 12]: 101.60 nm

Compound: CCCCCCCCCCNC(=O)C(O)CN(CCN(C)CCN(CC(O)C(=O)NCCCCCCCCCC)CC(O)C(=O)NCCCCCCCCCC)CC(O)C(=O)NCCCCCCCCCC (stereo not drawn) [Compound L0266]
- IVIS (mice; DMG-PEG2000:DSPC:Chol:Lipid 1.00:8.00:51.00:40.00, N/P 6.7, IV, body): 3.13 × 10^7
- % of organ targeting (mice; [13]): 28.98%
- IVIS (mice; [13]): 3.13 × 10^6
- % of organ targeting (mice; [14]): 24.44%
- IVIS (mice; [14]): 2.64 × 10^6
- % of organ targeting (mice; [15]): 46.57%
- IVIS (mice; [15]): 5.03 × 10^6
- IVIS (mice; DMG-PEG2000:DSPC:Chol:Lipid 1.50:8.00:30.50:60.00, N/P 8.3, IV, body): 2.53 × 10^7
- % of organ targeting (mice; [16]): 3.53%
- IVIS (mice; [16]): 1.72 × 10^6
- % of organ targeting (mice; [17]): 89.03%
- IVIS (mice; [17]): 4.34 × 10^7
- % of organ targeting (mice; [18]): 7.45%
- IVIS (mice; [18]): 3.63 × 10^6
- IVIS (mice; DMG-PEG2000:DSPC:Chol:Lipid 1.63:12.99:45.38:40.00, N/P 25, IM, whole body scan): 2.20 × 10^6
- tissue-targeting specificity (lung vs spleen depending on molar percentage of compound) (mice; certain formulations, Table 2): strong tissue-targeting specificity
- PDI [1, 19]: 0.10 ± 0.01
- Particle size [1, 19]: 80.47 ± 1.22 nm
- PDI [1, 20]: 0.17 ± 0.02
- Particle size [1, 20]: 108.70 ± 0.82 nm
- PDI [1, 21]: 0.17 ± 0.01
- Particle size [1, 21]: 85.98 ± 1.18 nm

Compound: CCCCCCCCCCCCNC(=O)C(O)CN(CCCN(CC(O)C(=O)NCCCCCCCCCCCC)CC(O)C(=O)NCCCCCCCCCCCC)CCCN(CC(O)C(=O)NCCCCCCCCCCCC)CC(O)C(=O)NCCCCCCCCCCCC (stereo not drawn) [Compound L0267]
- IVIS (mice; DMG-PEG2000:DSPC:Chol:Lipid 1.40:11.15:38.95:48.50, N/P 45, IV, whole body scan): 3.89 × 10^5
- IVIS (mice; DMG-PEG2000:DSPC:Chol:Lipid 1.77:14.07:49.16:35.00, N/P 45, IM, whole body scan): 1.05 × 10^6
- PDI [1, 22]: 0.16 ± 0.02
- Particle size [1, 22]: 148.37 ± 1.40 nm
- PDI [1, 23]: 0.14 ± 0.01
- Particle size [1, 23]: 121.47 ± 0.72 nm

Compound: CCCCCCCCCCNC(=O)C(O)CN(CCCN(CC(O)C(=O)NCCCCCCCCCC)CC(O)C(=O)NCCCCCCCCCC)CCCN(CC(O)C(=O)NCCCCCCCCCC)CC(O)C(=O)NCCCCCCCCCC (stereo not drawn) [Compound L0268]
- IVIS (mice; DMG-PEG2000:DSPC:Chol:Lipid 1.40:11.15:38.95:48.50, N/P 60, IV, whole body scan): 3.80 × 10^5
- IVIS (mice; DMG-PEG2000:DSPC:Chol:Lipid 1.77:14.07:49.16:35.00, N/P 60, IM, whole body scan): 5.86 × 10^5
- PDI [1, 24]: 0.07 ± 0.01
- Particle size [1, 24]: 116.83 ± 1.07 nm
- PDI [1, 25]: 0.08 ± 0.01
- Particle size [1, 25]: 95.36 ± 0.61 nm
